The text below walks through data of patent US11732017B2, “HLA-A24 agonist epitopes of MUC1-C oncoprotein and compositions and methods of use” (The USA, as represented by the Secretary, Dept. of Health …, priority 2013, dated 2023).

Holding throughout (type): cell-based, human
Assay [1] concerns PBMCs from vaccinated cancer patients. The experiment in a line: Establishment of T-cell lines with peptide-pulsed APCs. An excerpt: Patients-PBMCs were used from two patients with prostate cancer enrolled in a previously described clinical trial of PSA-TRICOM vaccine in combination with […] al., Lancet Oncol., 13: 501-8 (2012)). An institutional review board of the National Institutes of Health (NIH) Clinical Center had approved the procedures, and informed consent was obtained in accordance with the Declaration of Helsinki. […] Cells were restimulated every 7 days.

The test system of the next assay is T-C6A T-cell line. The experiment in a line: Detection of cytokines, T-cell line generated with C6A. The method, then: (§1) Cells were restimulated every 7 days.
Detection of cytokines—Autologous B cells pulsed with peptides at different concentrations (25, 12.5, 6.25 and 3, 13, and 1.56 μg/ml) were incubated with MUC1-specific T-cell lines at a 2:1 ratio for 24 hours.

For a further assay, the system named is T-C7A T-cell line. The experiment in a line: Detection of cytokines, T-cell line generated with agonist C7A. Conditions: 24 hours with peptide-pulsed B-cells. Here is the method:
as §1
(§2) Detection of cytokines—Autologous B cells pulsed with peptides at different concentrations (25, 12.5, 6.25 and 3, 13, and 1.56 μg/ml) were incubated with MUC1-specific T-cell lines at a 2:1 ratio for 24 hours. The supernatants were analyzed for IFN-γ by ELISA (Invitrogen, Frederick, Md.).
(§3) Each cell line was then stimulated for 24 hours with B-cells pulsed with either the native C7 or agonist C7A peptide, and cytokine levels in the supernatant were analyzed.

The subject of the next assay is T-C7 T-cell line. The experiment in a line: Detection of cytokines, T-cell line generated with native C7. Conditions: 24 hours with peptide-pulsed B-cells. Here is the method:
as §1, §2, §3

Setting [2] is: T-cell line T-C6A stimulated with peptide.
Where [3] appears, read: stimulation of the T-cell line generated with C6A.

“TYHPMSEYPT [Peptide C6, native MUC1-C HLA-A24 peptide, position 462-471, reference compound]”: the “generation of T-cell lines using APCs pulsed with the peptide” value (shortened to “generation of T-cell lines”) in assay [1] is given as “unsuccessful”.
Take KYHPMSEYAL [Peptide C6A]: the “generation of T-cell lines” value in assay [1] was “could be generated”. Moreover, in the assay on T-C6A T-cell line (setting [2]), the GM-CSF is 1277 pg/mL/2.5 × 10^5 T cells, the IFN-γ turned out to be 3060 pg/mL/2.5 × 10^5 T cells, the IL-2 is 3630 pg/mL/2.5 × 10^5 T cells and the IL-6 is 7.6 pg/mL/2.5 × 10^5 T cells. In the assay with T-C6A T-cell line (setting [2]), this sequence showed an IL-8 of 11.8 pg/mL/2.5 × 10^5 T cells, an IL-10 of 16.4 pg/mL/2.5 × 10^5 T cells and a TNFα of 1021 pg/mL/2.5 × 10^5 T cells. In the assay with T-C6A T-cell line (setting [3]), the GM-CSF level was > 10,000 pg/mL/10^5 cells, the IFN-γ level is given as 2,651 pg/mL/10^5 cells, the IL-2 level is on record as below 50 pg/mL/10^5 cells and the IL-6 level was below 50 pg/mL/10^5 cells. In the assay on T-C6A T-cell line (setting [3]), the IL-8 level is > 10,000 pg/mL/10^5 cells, the IL-10 level is given as below 50 pg/mL/10^5 cells, the IL-12 level was below 50 pg/mL/10^5 cells and the TNF-α level is recorded as 372 pg/mL/10^5 cells.
Consider “SYTNPAVAA [Peptide C7, native MUC1-C HLA-A24 peptide, position 502-510, reference compound]”, for which the “generation of T-cell lines” value in assay [1] was “could be generated”. In the assay with T-C7A T-cell line, the GM-CSF amounted to 215 pg/mL/2.5 × 10^5 T cells, the IFN-γ came out at 680 pg/mL/2.5 × 10^5 T cells, the IL-2 is given as below 2.4 pg/mL/2.5 × 10^5 T cells and the IL-6 is reported as below 2.4 pg/mL/2.5 × 10^5 T cells. Further, in the assay with T-C7A T-cell line, the IL-8 amounted to 112 pg/mL/2.5 × 10^5 T cells, the IL-10 was 92 pg/mL/2.5 × 10^5 T cells and the TNFα is reported as 30 pg/mL/2.5 × 10^5 T cells. For the same sequence, in the assay on T-C7 T-cell line, the GM-CSF stood at 237 pg/mL/2.5 × 10^5 T cells, the IFN-γ was 750 pg/mL/2.5 × 10^5 T cells, the IL-2 is below 2.4 pg/mL/2.5 × 10^5 T cells and the IL-6 stood at 6.4 pg/mL/2.5 × 10^5 T cells. Further, in the assay on T-C7 T-cell line, the IL-8 came out at 6.8 pg/mL/2.5 × 10^5 T cells, the IL-10 came to 25 pg/mL/2.5 × 10^5 T cells and the TNFα turned out to be 21 pg/mL/2.5 × 10^5 T cells.
For KYTNPAVAL [Peptide C7A], in assay [1], the “generation of T-cell lines” value is on record as “could be generated”. In the assay with T-C7A T-cell line, this sequence yielded a GM-CSF of 910 pg/mL/2.5 × 10^5 T cells, an IFN-γ of 2000 pg/mL/2.5 × 10^5 T cells, an IL-2 below 2.4 pg/mL/2.5 × 10^5 T cells and an IL-6 of 40 pg/mL/2.5 × 10^5 T cells. In the assay on T-C7A T-cell line, this sequence showed an IL-8 of 360 pg/mL/2.5 × 10^5 T cells, an IL-10 of 375 pg/mL/2.5 × 10^5 T cells and a TNFα of 70 pg/mL/2.5 × 10^5 T cells. In addition, in the assay on T-C7 T-cell line, the GM-CSF stood at 300 pg/mL/2.5 × 10^5 T cells, the IFN-γ was 1279 pg/mL/2.5 × 10^5 T cells, the IL-2 is below 2.4 pg/mL/2.5 × 10^5 T cells and the IL-6 came out at 7.7 pg/mL/2.5 × 10^5 T cells. In the assay on T-C7 T-cell line, the IL-8 amounted to 7.3 pg/mL/2.5 × 10^5 T cells, the IL-10 came to 45 pg/mL/2.5 × 10^5 T cells and the TNFα is reported as 30 pg/mL/2.5 × 10^5 T cells.
